Reference: patent US20090186853A1, “COMPOSITIONS COMPRISING N-PROPANOYL DERIVATIVES OF AMINO ACIDS, AMINOCARBOHYDRATES AND DERIVATIVES THEREOF” (priority 2005, published 2009)

Tests used:
[1] = tested on: itchy lesion due to atopic eczema; assay: Topical treatment of itch from atopic eczema in a human subject; type: in vivo; settings: 5% cream
Experimental: For subjective disorders such as pain, itch, or the like, the therapeutic effects were evaluated or judged by the subjects or patients. For example, the subjects evaluated whether the pain or itch had disappeared within hours or days. For other detectable symptoms or syndromes, the therapeutic effects or improvements were evaluated or judged by medical professionals. N-Propanoyl-D-glucosamine 5 g was dissolved in water 15 ml and propylene glycol 5 ml, and the solution thus obtained was mixed uniformly with hydrophilic ointment or oil-in-water emulsion 75 g. The cream thus formulated had pH 4.7 and contained 5% N-propanoyl-D-glucosamine. A subject, having an itchy lesion on their right foot due to atopic eczema, topically applied the above cream to the lesion. […] A human subject having itchy skin from atopic eczema topically applied 5% N-propanoyl-glucosamine cream to the lesion.

[2] = tested on: fine wrinkles (crow's feet); assay: Topical treatment of fine wrinkles (crow's feet) near the eyes; type: in vivo, human; settings: 5% cream of Example 7, topical twice daily, five weeks, person
Experimental: For subjective disorders such as pain, itch, or the like, the therapeutic effects were evaluated or judged by the subjects or patients. For example, the subjects evaluated whether the pain or itch had disappeared within hours or days. For other detectable symptoms or syndromes, the therapeutic effects or improvements were evaluated or judged by medical professionals. A subject, applied topically twice daily 5% N-propanoyl-D-glucosamine cream as formulated in Example 7 to fine wrinkles (crow's feet) near the eyes for five weeks.

[3] = tested on: forearm skin (aging / photoaging skin); assay: Forearm skin thickness measured by micrometer calipers after topical application; type: in vivo, human; settings: 10% solution twice daily; for appearance of treated forearm skin compared with untreated forearm: at end of treatment (6 to 9 weeks)
Experimental: Skin thickness was measured by micrometer calipers to study skin changes associated with aging as follows: The skin was grasped with a 2×6 cm metal hinge, the internal faces of that were coated with emery cloth to prevent slippage, and manually squeezed to threshold subject discomfort. Combined thickness of two whole-skin layers including thickness of the two hinge leaves was measured with micrometer calipers. Thickness of the two hinge leaves was subtracted to determine the actual thickness of two whole-skin layers. Triplicate measurements on treated sites were done and an average number was used for calculation of the skin thickness. N-Propanoyl-D-glucosamine 10 g was dissolved in 90 ml solution prepared from water 40 parts, ethanol 40 parts and propylene glycol 20 parts by volume. The formulation thus prepared had pH 6.0 and contained 10% N-propanoyl-D-glucosamine solution.

Compound: CCC(=O)N[C@H]1C(O)O[C@H](CO)[C@@H](O)[C@@H]1O (stereo partly drawn) [N-propanoyl-D-glucosamine, N-Propanoyl-D-glucosamine]
- time skin remained free of itch ([1]; single topical application to atopic eczema lesion): 12 h
- itch after topical application ([1]; topical to atopic eczema lesion, a few minutes after application): the itch disappeared completely
- change of wrinkles [2]: wrinkles improved significantly
- appearance of treated forearm skin compared with untreated forearm [3]: firmer, smooth, plump and minimally wrinkled when lifted
- appearance of treated forearm skin compared with untreated forearm ([3]; listed as N-propanoyl-glucosamine): firmer, smooth, plump, minimally wrinkled when lifted
- increase in skin thickness ([3]; left forearm, person, after 4 weeks): 8%
- increase in skin thickness ([3]; left forearm, person, after 5 weeks): 19%
- increase in skin thickness ([3]; left forearm, person, after 6 weeks): 23%
- increase in skin thickness ([3]; left forearm, person, after 8 weeks): 33%
- increase in skin thickness ([3]; left forearm, person, after 9 weeks): 28%
- increase in skin thickness ([3]; left forearm, subject with photoaging skin, 8 weeks): 33%
- increase in skin thickness ([3]; right forearm, person, after 4 weeks): 13%
- increase in skin thickness ([3]; right forearm, person, after 6 weeks): 27%
